Results reported in patent US20250154686A1, “COMPOUND LIBRARY” (CHUGAI SEIYAKU KABUSHIKI KAISHA, priority 2021, published 2025).

Biological target: T1, Bcl-2 protein (Recombinant Human Bcl-2 Protein) (Homo sapiens, UniProt P10415)
T1 construct: purchased Novus Biologicals NBP2-34889
Experiment: AS-MS evaluation of binding of the Example 4 mixture library (1200 compounds/well) to Bcl-2, ASMS ratio (%)
Outline: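 A pooled 1200-compound mixture (20 nM each final) was incubated with 20 μM recombinant human Bcl-2 in pH 7.4 Tris-HCl buffer with NaCl, Tween-20 and DTT for 1 h at 23° C. in the dark. Bound ligands were separated by spin-column SEC and measured by reverse-phase LC/MS; ASMS ratio (%) was calculated against protein-free unfiltered standard and protein-free SEC blank.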

[1] = replicate n = 1, mixture library, value belongs to the MS peak assigned to the compound
[2] = replicate n = 2, mixture library, value belongs to the MS peak assigned to the compound
[3] = AS-MS, Example 4 mixture library, Bcl-2, replicate n = 1
[4] = AS-MS, Example 4 mixture library, Bcl-2, replicate n = 2

T1 sequence (P10415 whole entry): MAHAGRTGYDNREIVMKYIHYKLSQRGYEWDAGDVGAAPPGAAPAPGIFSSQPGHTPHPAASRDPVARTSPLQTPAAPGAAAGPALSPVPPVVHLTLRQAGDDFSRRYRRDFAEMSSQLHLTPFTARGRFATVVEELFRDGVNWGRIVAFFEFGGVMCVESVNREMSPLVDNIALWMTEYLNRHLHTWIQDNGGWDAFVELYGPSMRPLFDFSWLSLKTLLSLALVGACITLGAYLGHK

| SMILES | ASMS ratio (%) n = 1 [1] [%] | ASMS ratio (%) n = 2 [2] [%] | ASMS ratio (%) n = 1 [3] [%] | ASMS ratio (%) n = 2 [4] [%] | also measured |
| --- | --- | --- | --- | --- | --- |
| CCOc1cncc(-c2csc(CN3CCN(c4ccc(C(=O)NS(C)(=O)=O)nn4)CC3)c2)c1 [Compound B2I094-01, 6-[4-[[4-(5-Ethoxypyridin-3-yl)thiophen-2-yl]methyl]piperazin-1-yl]-N-methylsulfonylpyridazine-3-carboxamide] | 0.0 | 0.0 |  |  |  |
| CCOc1cncc(-c2ccc(C(=O)N3CCN(c4ccc(C(=O)N(CC)CC)nn4)CC3)cc2F)c1 [Compound B4J006-01, 6-[4-[4-(5-Ethoxypyridin-3-yl)-3-fluorobenzoyl]piperazin-1-yl]-N,N-diethylpyridazine-3-carboxamide] |  |  |  |  | ASMS ratio (%) n = 1 (Example 4 mixture library, 1200 compounds/well, Bcl-2 protein, replicate n = 1, value belongs to the MS peak assignable to the compound): 0.0%; ASMS ratio (%) n = 2 (Example 4 mixture library, 1200 compounds/well, Bcl-2 protein, replicate n = 2, value belongs to the MS peak assignable to the compound): 0.0% |
| CCOc1cccc(-c2ccc(C(C)N3CCN(c4ccc(C(=O)NS(C)(=O)=O)cc4)CC3)cc2)c1 (stereo not shown) [Compound B2I097-01, 4-[4-[1-[4-(3-Ethoxyphenyl)phenyl]ethyl]piperazin-1-yl]-N-methylsulfonylbenzamide] | 0.8 | 1.4 |  |  |  |
| CCOc1cccc(-c2ccccc2CN2CCN(c3ccc(C(=O)NS(=O)(=O)C(C)(C)C)cc3)CC2)c1 [Compound B2L045-01, N-tert-Butylsulfonyl-4-[4-[[2-(3-ethoxyphenyl)phenyl]methyl]piperazin-1-yl]benzamide] | 0.0 | 0.0 |  |  |  |
| CCOc1cccc(-c2cc(CN3CCN(c4ccc(C(=O)NS(C)(=O)=O)nn4)CC3)cc(OC(C)C)c2)c1 [Compound B2I083-01, 6-[4-[[3-(3-Ethoxyphenyl)-5-propan-2-yloxyphenyl]methyl]piperazin-1-yl]-N-methylsulfonylpyridazine-3-carboxamide] | 0.0 | 0.0 |  |  |  |
| CCOc1cncc(-c2ccc(CN3CCN(c4ccc(C(=O)NS(=O)(=O)C(C)(C)C)nn4)CC3)c(CC)c2)c1 [Compound B2L076-01] | 1.8 | −0.3 |  |  |  |
| CCOc1cccc(-c2ccc(CN3CCN(c4ccc(C(=O)NS(C)(=O)=O)nn4)CC3)c(CC)c2)c1 [Compound B2I075-01, 6-[4-[[4-(3-Ethoxyphenyl)-2-ethylphenyl]methyl]piperazin-1-yl]-N-methylsulfonylpyridazine-3-carboxamide] | 0.0 | 0.0 |  |  |  |
| CCOc1cncc(C#Cc2ccccc2CN2CCN(c3ccc(C(=O)NS(=O)(=O)C(C)(C)C)cc3)CC2)c1 [Compound B2L070-01] | 4.9 | −4.2 |  |  |  |
| CCOc1cncc(-c2cc(OC)c(CN3CCN(c4ccc(C(=O)NS(C)(=O)=O)cc4)CC3)c(OC)c2)c1 [Compound B2I060-01, 4-[4-[[4-(5-Ethoxypyridin-3-yl)-2,6-dimethoxyphenyl]methyl]piperazin-1-yl]-N-methylsulfonylbenzamide] | 0.0 | 0.0 |  |  |  |

The next lines start with results.

| ASMS ratio (%) n = 1 [1] [%] | ASMS ratio (%) n = 2 [2] [%] | ASMS ratio (%) n = 1 [3] [%] | ASMS ratio (%) n = 2 [4] [%] | SMILES | also measured |
| --- | --- | --- | --- | --- | --- |
|  |  | 0.0 | 0.0 | CCOc1cncc(C#Cc2ccccc2C(=O)N2CCN(c3ccc(C(=O)NS(=O)(=O)CCC(F)(F)F)cc3)CC2)c1 [Compound B2N030-01, 4-[4-[2-[2-(5-Ethoxypyridin-3-yl)ethynyl]benzoyl]piperazin-1-yl]-N-(3,3,3-trifluoropropylsulfonyl)benzamide] |  |
|  |  | 0.6 | 10.1 | CCOc1cncc(-c2ccc(C(C)N3CCN(c4ccc(C(=O)NS(=O)(=O)c5ccc(NCCSc6ccccc6)c(C(F)(F)F)c5)cc4)CC3)c(F)c2)c1 (stereo not shown) [Compound B2R100-01, 4-[4-[1-[4-(5-Ethoxypyridin-3-yl)-2-fluorophenyl]ethyl]piperazin-1-yl]-N-[4-(2-phenylsulfanylethylamino)-3-(trifluoromethyl)phenyl]sulfonylbenzamide] |  |
|  |  | 13.0 | 4.8 | CCOc1cncc(-c2cc(CN3CCN(c4ccc(C(=O)NS(=O)(=O)c5ccc(NCCSc6ccccc6)c(C(F)(F)F)c5)cc4)CC3)cc(OC(C)C)c2)c1 [Compound B2R058-01, 4-[4-[[3-(5-Ethoxypyridin-3-yl)-5-propan-2-yloxyphenyl]methyl]piperazin-1-yl]-N-[4-(2-phenylsulfanylethylamino)-3-(trifluoromethyl)phenyl]sulfonylbenzamide] |  |
|  |  | 3.4 | −9.2 | CCOc1cccc(-c2cc(CN3CCN(c4ccc(C(=O)NS(=O)(=O)c5ccc(NCCSc6ccccc6)c(C(F)(F)F)c5)nn4)CC3)cc(OC(F)(F)F)c2)c1 [Compound B2R089-01, 6-[4-[[3-(3-Ethoxyphenyl)-5-(trifluoromethoxy)phenyl]methyl]piperazin-1-yl]-N-[4-(2-phenylsulfanylethylamino)-3-(trifluoromethyl)phenyl]sulfonylpyridazine-3-carboxamide] |  |
|  |  | 8.3 | 0.9 | CCOc1cccc(-c2ccc(C(=O)N3CCN(c4ccc(C(=O)NS(=O)(=O)c5ccc(NCCSc6ccccc6)c(C(F)(F)F)c5)cc4)CC3)c3ccccc23)c1 [Compound B2R035-01] |  |
|  |  | 0.0 | −15.5 | CCOc1cccc(-c2csc(C(=O)N3CCN(c4ccc(C(=O)NS(=O)(=O)c5ccc(NCCSc6ccccc6)c(C(F)(F)F)c5)cc4)CC3)c2)c1 [Compound B2R023-01, 4-[4-[4-(3-Ethoxyphenyl)thiophene-2-carbonyl]piperazin-1-yl]-N-[4-(2-phenylsulfanylethylamino)-3-(trifluoromethyl)phenyl]sulfonylbenzamide] |  |
|  |  | 12.7 | −1.8 | CCOc1cccc(-c2ccc(CN3CCN(c4ccc(C(=O)NS(=O)(=O)c5ccc(NCCSc6ccccc6)c(C(F)(F)F)c5)cc4)CC3)cc2F)c1 [Compound B2R051-01, 4-[4-[[4-(3-Ethoxyphenyl)-3-fluorophenyl]methyl]piperazin-1-yl]-N-[4-(2-phenylsulfanylethylamino)-3-(trifluoromethyl)phenyl]sulfonylbenzamide] |  |
|  |  | 0.0 | 0.0 | CCOc1cccc(-c2ccc(C(C)N3CCN(c4ccc(C(=O)NS(=O)(=O)CCC(F)(F)F)cc4)CC3)cc2)c1 (stereo not shown) [Compound B2N097-01, 4-[4-[1-[4-(3-Ethoxyphenyl)phenyl]ethyl]piperazin-1-yl]-N-(3,3,3-trifluoropropylsulfonyl)benzamide] |  |
|  |  | 0.0 | 0.0 | CCOc1cncc(-c2csc(C(=O)N3CCN(c4ccc(C(=O)NS(=O)(=O)CCC(F)(F)F)nn4)CC3)c2)c1 [Compound B2N002-01, 6-[4-[4-(5-Ethoxypyridin-3-yl)thiophene-2-carbonyl]piperazin-1-yl]-N-(3,3,3-trifluoropropylsulfonyl)pyridazine-3-carboxamide] |  |
|  |  | 0.2 | 1.8 | CCOc1cncc(-c2csc(CN3CCN(c4ccc(C(=O)NS(=O)(=O)C(C)(C)C)nn4)CC3)c2)c1 [Compound B2L094-01, N-tert-Butylsulfonyl-6-[4-[[4-(5-ethoxypyridin-3-yl)thiophen-2-yl]methyl]piperazin-1-yl]pyridazine-3-carboxamide] |  |
|  |  | 3.9 | −5.0 | CCOc1cncc(-c2ccc(C(C)N3CCN(c4ccc(C(=O)NS(=O)(=O)C(C)(C)C)cc4)CC3)cc2)c1 (stereo not shown) [Compound B2L098-01, N-tert-Butylsulfonyl-4-[4-[1-[4-(5-ethoxypyridin-3-yl)phenyl]ethyl]piperazin-1-yl]benzamide] |  |
